Patent publication US11026944B2, “Compositions and methods for treating insomnia” (Eisai R&D Management Co., Ltd., priority 2014, dated 2021)
Read-outs that look alike come from different tables or passages of the source.

Assays:
[1] = tested on: subjects with primary insomnia; assay: 001 Study Part B: next day KSS, DSST, PVT; assay type: in vivo, human
Text: After the initial Screening visit, eligible subjects were scheduled to return to the clinic for 2 days during the Screening Period to conduct screening/baseline PSGs. These two days occurred at least 3 days after the initial Screening visit and within a window from Day-7 to Day-6 (±2 days). The first PSG was used to screen for sleep apnea and periodic limb movements in sleep (PLMS) and serve as the first baseline PSG. The second PSG was used as the second baseline PSG. Specific PSG variables were used to determine whether subjects met PSG inclusion criteria, and the average of PSG variables from these two PSGs was used as Baseline for this PD measure. Subjects who had met PSG inclusion criteria returned to the clinic on Day-1 for additional baseline procedures and randomization. Subjects were not allowed to nap on Day 1. On the evening of Day 1, after fasting a minimum of 3 hours, study drug was administered 30 minutes prior to the subject's habitual bedtime (lights-out), as calculated from the sleep diary for the first PSG during the Screening Period. PK blood samples were collected at prespecified timepoints, and PD assessments were performed. PSG was recorded on Day 1, postdose. Subjects were administered additional PD assessments each morning on Day 1 through Day 6. These assessments included the KSS, DSST, and PVT, in order to assess daytime sleepiness, level of alertness, and ability to concentrate. The KSS and DSST were also administered 5 minutes predose and 25 minutes postdose on Day 1, just prior to lights-out. Waketime Questionnaires were administered after the PD assessments within 15 minutes of lights-on, on Day 1 to Day 6. Time and duration of naps was recorded on Day 2.
Part B subjects were administered the KSS, DSST, and PVT within 15 minutes after lights-on specifically in that order, on each morning from Day 1 through Day 6, followed by the Waketime Questionnaire. The KSS and DSST were also administered 5 minutes predose and 25 minutes postdose on Day 1 (just prior to lights-out).

[2] = Multiple ascending dose study (002 Study): plasma PK; assay type: in vivo, human; details: for concentration at 8 h / concentration at 10 h / AUC(0-t) / Cmax / Tmax / half-life: human, oral; for concentration at 8 h: plasma at 8 h, read-out: C8 Mean(SD); for concentration at 10 h: plasma at 10 h, read-out: C10 Mean(SD); for AUC(0-t) / Cmax / Tmax / half-life: plasma; for AUC(0-t): read-out: AUC(0-24) Mean(SD); for Cmax: read-out: Cmax Mean(SD); for Tmax: read-out: tmax Median
Experimental: A total of 48 healthy adult subjects (18 to 55 years) were to be enrolled into 1 of 6 cohorts sequentially in a gradual dose escalation manner, and randomized to receive either compound A or compound A-matched placebo in the evening 30 minutes before habitual bedtime, and after 3 hours fasting, for 14 days. Each cohort was to comprise 6 compound A-treated subjects and 2 placebo-treated subjects. Blood samples were collected for PK analysis at prespecified timepoints, and PD assessments were conducted.
Blood samples for determination of plasma concentrations of compound A were collected at Day 1 predose and postdose 0.5 (30 minutes), 1, 1.5, 2, 3, 4, 5, 6, 8, 10, and 12 hours; Days 2 to 13: predose; Day 14: predose and postdose 0.5 (30 minutes), 1, 1.5, 2, 3, 4, 5, 6, 8, 10, and 12 hours; Day 15: 24 hours after Day 14 dose; Days 16 to 19: 36, 60, 84, and 108 hours after Day 14 dose; Day 21, 24, 26, 28: As close as possible to 156, 228, 276, and 324 hours after Day 14 dose. Plasma concentrations of compound A were measured in the same manner as described in Example 1 and the above noncompartmental plasma PK parameters were calculated for compound A.
Compound A capsules and compound A-matched placebo capsules were available in strengths of 2.5 mg, 10 mg, and 50 mg. All study drugs were administered as daily doses using one or more compound A-capsules or compound A-matched placebo capsules due to the test dose.

[3] = 2.5 mg, Day 1, 2.5 mg once daily in the evening
[4] = 2.5 mg, Day 14, 2.5 mg once daily for 14 days
[5] = 5 mg, Day 1, 5 mg once daily in the evening
[6] = 5 mg, Day 14, 5 mg once daily for 14 days
[7] = 10 mg, Day 1, 10 mg once daily in the evening
[8] = 10 mg, Day 14, 10 mg once daily for 14 days
[9] = 25 mg, Day 1, 25 mg once daily in the evening
[10] = 25 mg, Day 14, 25 mg once daily for 14 days
[11] = 50 mg, Day 1, 50 mg once daily in the evening
[12] = 50 mg, Day 14, 50 mg once daily for 14 days
[13] = 75 mg, Day 1, 75 mg once daily in the evening
[14] = 75 mg, Day 14, 75 mg once daily for 14 days

## Cc1ncc(OC[C@@]2(c3cccc(F)c3)C[C@H]2C(=O)Nc2ccc(F)cn2)c(C)n1 [Compound A, (1R,2 S)-2-(((2,4-dimethylpyrimidin-5-yl)oxy)methyl)-2-(3-fluorophenyl)-N-(5-fluoropyridin-2-yl) cyclopropanecarboxamide]
[1]; any dose of compound A (2.5, 10, 25 mg), zolpidem 10 mg
  next day effects on KSS, DSST, or PVT: no clinically significant next day effects
[1]; single 25 mg evening dose
  measures of next-day residual sleepiness: some individuals at this dose exhibited increases from baseline
[2]; 14 days once daily
  Accumulation: lower than predicted by the terminal half-life
[2]; Day 1, 25 mg once daily in the evening
  Cmax Mean(SD): 92.0(24.0) ng/mL
[2]; Day 14, 50 mg once daily for 14 days
  t1/2 Mean(SD): 55.5(21.3) h
[2]; dose-normalized data, Day 1
  AUC(0-24 h) dose proportionality: increased slightly less than in proportion to dose
[2]; dose-normalized data, Day 1 and Day 14
  Cmax dose proportionality: increased slightly less than in proportion to dose
[2]; dose-normalized data, Day 14
  AUC(0-24 h) dose proportionality: increased in approximate proportion to dose
[2]; Day 1, 2.5 mg
  concentration at 8 h: 2.33 ng/mL
  concentration at 10 h: 2.04 ng/mL
[2]; Day 1, 5 mg
  concentration at 8 h: 4.4 ng/mL
  concentration at 10 h: 3.63 ng/mL
[2]; Day 1, 10 mg
  concentration at 8 h: 8.51 ng/mL
  concentration at 10 h: 7.72 ng/mL
[2]; Day 1, 25 mg
  concentration at 8 h: 24.1 ng/mL
  concentration at 10 h: 19.8 ng/mL
[2]; Day 1, 50 mg
  concentration at 8 h: 38.1 ng/mL
  concentration at 10 h: 32.9 ng/mL
[2]; Day 1, 75 mg
  concentration at 8 h: 54.5 ng/mL
  concentration at 10 h: 44.2 ng/mL
[2]; [3]
  AUC(0-t): 59.4 ng·h/mL
  Cmax: 10.1 ng/mL
  Tmax: 2.02 h
[2]; [4]
  AUC(0-t): ~120 ng·h/mL
  Cmax: ~15 ng/mL
  Tmax: ~2 h
[2]; 2.5 mg, Day 14, 2.5 mg once daily for 14 days, read-out: t1/2 Mean(SD) (converted)
  half-life: ~44 h
[2]; [5]
  AUC(0-t): 108 ng·h/mL
  Cmax: 19.4 ng/mL
  Tmax: 1.25 h
[2]; [6]
  AUC(0-t): ~190 ng·h/mL
  Cmax: ~24 ng/mL
  Tmax: ~1 h
[2]; 5 mg, Day 14, 5 mg once daily for 14 days, read-out: t1/2 Mean(SD) (converted)
  half-life: ~46 h
[2]; [7]
  AUC(0-t): 187 ng·h/mL
  Cmax: 30.4 ng/mL
  Tmax: 3.25 h
[2]; [8]
  AUC(0-t): ~360 ng·h/mL
  Cmax: ~47 ng/mL
  Tmax: ~2 h
[2]; 10 mg, Day 14, 10 mg once daily for 14 days, read-out: t1/2 Mean(SD) (converted)
  half-life: ~55 h
[2]; 10 mg, doses of 10 mg and higher, following Day 14 dosing, read-out: mean terminal half-life (converted)
  half-life: ~55 h
[2]; [9]
  AUC(0-t): 549 ng·h/mL
  Tmax: 1.5 h
[2]; [10]
  AUC(0-t): 1100 ng·h/mL
  Cmax: 107 ng/mL
  Tmax: 3 h
[2]; 25 mg, Day 14, 25 mg once daily for 14 days, read-out: t1/2 Mean(SD) (converted)
  half-life: 50.6 h
[2]; 50 mg, 50-mg dose, read-out: effective half-life based on accumulation (converted)
  half-life: 28 h
[2]; [11]
  AUC(0-t): 931 ng·h/mL
  Cmax: 199 ng/mL
  Tmax: 2 h
[2]; [12]
  AUC(0-t): 2300 ng·h/mL
  Cmax: 220 ng/mL
  Tmax: 2.02 h
[2]; 75 mg, 75-mg dose, read-out: effective half-life based on accumulation (converted)
  half-life: 39.3 h
[2]; [13]
  AUC(0-t): 1260 ng·h/mL
  Cmax: 223 ng/mL
  Tmax: 3 h
[2]; [14]
  AUC(0-t): 3790 ng·h/mL
  Cmax: 420 ng/mL
  Tmax: 2 h
[2]; 75 mg, Day 14, 75 mg once daily for 14 days, read-out: t1/2 Mean(SD) (converted)
  half-life: 56.2 h
[2]; 2.5- and 5-mg doses, average, read-out: terminal half-life (converted)
  half-life: ~45 h
[2]; doses ranging from 2.5 to 25 mg, read-out: effective half-life based on accumulation (converted)
  half-life: 16.9 to 24.7 h
